Values of other authors as cited in patent US5711967A (Spirig AG, Pharmazeutische Praeparate, priority 1991, dated 1998).

Assays:
[1] = above pKa value of approx. 4-5
mucosa = conditions: release in the stomach

In the case of `O=C(O)Cc1ccccc1Nc1c(Cl)cccc1Cl` [diclofenac], the “solubility in aqueous media” value [1] is given as “increases considerably above this value”, the “distribution into the synovial fluid” value (from the blood plasma) is given as “concentrate in the synovial fluid, with a delay” and the elimination half-life (non-delayed-action diclofenac) is given as 1 to 2 h. For the same molecule, the blood concentration half-life (oral diclofenac preparations) was “one to two” and the action on mucosa (mucosa) was “mucosa-irritating and/or mucosa-damaging”.
